In the NIST ThermoML archive (doi:10.1021/je400917j):
Where “and” joins values, the source holds several entries; their conditions need not be identical. Equal values may be shown once.

Tests used:
[1] = 101 kPa, Liquid; for mass density: Vibrating tube method
[2] = xn = mol fraction of the nth substance listed; details: 101 kPa, Liquid; for mass density: Vibrating tube method

CCCCCC(C)O (stereo not drawn) [2-heptanol]
[1]
Details	mass density [kg/m3]	viscosity [mPa·s]
298.15 K	813.2	5.3
303.15 K	809.5	4.48
308.15 K	805.7	3.68
313.15 K	801.5	2.96

CCCCC(C)O (stereo not drawn) [2-hexanol]
[1]
Details	mass density [kg/m3]	viscosity [mPa·s]
298.15 K	810.1	4.1
303.15 K	806.1	3.41
308.15 K	802.1	2.82
313.15 K	798	2.22

CC(=O)N(C)C [N,N-dimethylethanamide]
[1]
Details	mass density [kg/m3]	viscosity
298.15 K	936.5	0.94 mPa·s
303.15 K	932	0.87 mPa·s
308.15 K	927.8	0.82 mPa·s and 0.8 mPa·s
313.15 K	923.5	0.75 mPa·s

CC(=O)N(C)C [N,N-dimethylethanamide] + CCCC(C)O
[2], x1 = 1
Details	mass density [kg/m3]	viscosity [mPa·s]
298.15 K	936.5	0.94
303.15 K	932	0.87
308.15 K	927.8	0.8
313.15 K	923.5	0.75

CC(=O)N(C)C [N,N-dimethylethanamide] + CCCCC(C)O
[2], x1 = 1
Details	mass density [kg/m3]	viscosity [mPa·s]
298.15 K	936.5	0.94
303.15 K	932	0.87
308.15 K	927.8	0.8
313.15 K	923.5	0.75

CC(=O)N(C)C [N,N-dimethylethanamide] + CCCCCC(C)O
[2], x1 = 1
Details	mass density [kg/m3]	viscosity [mPa·s]
298.15 K	936.5	0.94
303.15 K	932	0.87
308.15 K	927.8	0.8
313.15 K	923.5	0.75

CCC(C)O (stereo not drawn) [butan-2-ol]
[1]
Details	mass density [kg/m3]	viscosity [mPa·s]
298.15 K	803	3.1
303.15 K	798.9	2.53
308.15 K	795	2.13
313.15 K	790.2	1.8

CCC(C)O (stereo not drawn) [butan-2-ol] + CC(=O)N(C)C
[2], x2 = 0
Details	mass density [kg/m3]	viscosity [mPa·s]
298.15 K	803	3.1
303.15 K	798.9	2.53
308.15 K	795	2.13
313.15 K	790.2	1.8

CCCC(C)O (stereo not drawn) [pentan-2-ol]
[1]
Details	mass density [kg/m3]	viscosity [mPa·s]
298.15 K	805.4	3.5
303.15 K	800.9	2.83
308.15 K	796.9	2.35
313.15 K	792.6	1.98

CC(C)O [propan-2-ol]
[1]
Details	mass density [kg/m3]	viscosity [mPa·s]
298.15 K	781.1	2.05
303.15 K	776.8	1.79
308.15 K	772.4	1.56
313.15 K	767.8	1.35

CC(C)O [propan-2-ol] + CC(=O)N(C)C
[2], x2 = 0
Details	mass density [kg/m3]	viscosity [mPa·s]
298.15 K	781.1	2.05
303.15 K	776.8	1.79
308.15 K	772.4	1.56
313.15 K	767.8	1.35
